This note sets out measurements from patent US20030008897A1, “Method of controlling weight gain associated with therapeutic drugs” (priority 2000, published 2003).

The test system of assay [1] is female Sprague-Dawley rats. Put plainly: clozapine-induced hyperphagia (food intake) in rats. In kind it is in vivo, rat. Particulars: for Mean food intake ± SEM: 3 mg/kg orally, food intake over 2 h, n=10, vehicle 6.5 ± 0.9. The protocol: Experiments were performed in individually-housed female Sprague-Dawley rats with free access to food (powdered rat chow containing 20% lard) and tap water at all times. On the day of the experiment, animals (n=10) were dosed orally with vehicle; the neuroleptic clozapine 3 mg/kg; sibutramine 3 mg/kg or sibutramine plus clozapine 3 mg/kg; and their food intake was monitored over 2 h.

In assay [2] the target is [3H]Noradenaline reuptake (Rattus norvegicus, UniProt Q9WTR4). Put plainly: in vitro [3H]noradrenaline reuptake inhibition in rat brain tissue. In kind it is biochemical. The note with it: means of ≧3 separate determinations.

Regarding `CC(C)CC(N(C)C)C1(c2ccc(Cl)cc2)CCC1` (stereo not shown) [Sibutramine, N,N-dimethyl-1-[1-(4-chlorophenyl)cyclobutyl]-3-methylbutylamine], the “Mean food intake ± SEM” value in assay [1] was 1.7 ± 0.6 g/kg. Further, the “effect on food intake compared to vehicle-treated control group” value in assay [1] (3 mg/kg po, over 2 h) is listed as “significantly decreased food intake”.

On to `CC(NC(C)(C)C)C(=O)c1cccc(Cl)c1` (stereo not shown) [Bupropion], for which the Ki (commonly the equilibrium dissociation constant of an inhibitor or competing ligand from its target) in assay [2] is 2590 nM.

`CN1CCN(C2=Nc3cc(Cl)ccc3Nc3ccccc32)CC1` [Clozapine]: in assay [1], the “Mean food intake ± SEM” value was determined as 9.3 ± 0.7 g/kg.
